Measurements reported in US20240262817A1, “QUINAZOLINE DERIVATIVES TARGETING R(CCUG) REPEATS IN MYOTONIC DYSTROPHY TYPE 2” (University of Florida Research Foundation, Incorporated, priority 2021, published 2024).
Entries after “also recorded” stand apart in the source; their conditions may differ.

What was measured:
[1] = tested on: CNBP intron 1 in wild-type fibroblasts; assay: CNBP intron 1 levels via RT-qPCR in wild-type fibroblasts; assay type: cell-based
Description: (§1) Cell lines and cell culture: Compounds were tested in two cell lines: (i) DM2 patient-derived fibroblasts (generous gift from University of Florida, Center for NeuroGenetics) and (ii) fibroblasts from a healthy donor (wild-type; WT GM07492; Coriell Institute). Cells were maintained at 37° ° C. with 5% CO2. DM2 fibroblasts were cultured in DMEM/high glucose (HyClone) supplemented with 20% FBS (Sigma) and 1% Antibiotic-Antimycotic solution (Corning). Wild-type fibroblasts were cultured in MEM (Corning) supplemented with 10% FBS, 1% Glutagro (Corning), and 1% Antibiotic-Antimycotic solution.
(§2) Evaluation of CNBP abundance via RT-qPCR: CNBP abundance was evaluated as previously described.^10 Briefly, cells were grown in 6-well plates and treated with the desired compound in growth medium at 40% confluency. […] Approximately 1 μg of total RNA was reverse transcribed using a qScript cDNA synthesis kit (20 μL total reaction volume, Quanta BioSciences); 2 μL of the reverse transcription (RT) reaction was used for each primer pair (Table S1) for quantitative PCR with SYBR Green Master Mix, performed on a QuantStudio 5, 384-well Block Real-Time PCR System (Applied Biosciences). Relative abundance was determined by normalizing to GAPDH (n=6 replicates per concentration; 2 independent experiments).

[2] = tested on: MAP4K4 exon 22a splicing (NOVA-dependent) in DM2 fibroblasts; assay: MAP4K4 exon 22a splicing via RT-PCR in DM2 fibroblasts; assay type: cell-based
Description: as §1
Evaluation of pre-mRNA splicing via RT-PCR: Pre-mRNA splicing was analyzed as previously described.^10 Briefly, cells were grown in 6-well plates and treated with the desired compound in growth medium at ˜40% confluency. After 48 h, the cells were lysed, and total RNA was harvested using a Zymo Quick RNA Miniprep Kit. Approximately 1 μg of total RNA was reverse transcribed using a qScript cDNA synthesis kit (20 μL of total reaction volume, Quanta BioSciences); 2 μL of the RT reaction was used for PCR using GoTaq DNA polymerase (Promega). […] Gels were quantified using ImageJ. Percent rescue was calculated by dividing the difference between treated and untreated DM2 samples by the difference between untreated DM2 and WT samples (Equation 2).

r(CCUG)12 = assay: Microscale thermophoresis (MST) affinity for r(CCUG)12; assay type: binding; conditions: read-out: Kd,app for r(CCUG)12
Description: (§3) Affinity measurements: Binding affinity measurements were performed via microscale thermophoresis (MST) on a Monolith NT.115 system (NanoTemperTechnologies) with Cy5-labeled (CCUG)12 (SEQ ID NO: 15) (5′-Cy5-GCG(CCUG)12CGC. SEQ ID NO:13; Dharmacon) and Cy5-labeled base pair control (BP; 5′-Cy5-GCG(CCUG)(GCAG)5CGC, SEQ ID NO:14; Dharmacon), which were deprotected according to the manufacturer's protocol and then desalted using a PD-10 column (GE LifeSciences) per the manufacturer's recommended procedure. RNA (5 nM) was prepared in 8 mM Na2HPO4, 185 mM NaCl, 1 mM EDTA and folded by heating at 60° C. for 5 min and slowly cooling to room temperature. Compound 1:1 dilution was prepared using 1×MST Buffer (8 mM Na2HPO4, 185 mM NaCl, 1 mM EDTA) and 0.1% (v/v) Tween-20 was added. After cooling the RNA solution was added to the compound solution (0.05% (v/v) Tween-20 final concentration). Samples were incubated for 30 min at room temperature and then loaded into standard capillaries (NanoTemper Technologies). […] Fluorescence was detected using excitation wavelengths of 605-645 nm and emission wavelengths of 680-685 nm. The resulting data were analyzed by thermophoresis analysis and fitted using a quadratic binding equation in the MST analysis software (NanoTemper Technologies). Dissociation constants were then determined using equation 3. […]

[3] = tested on: r(CCUG)exp-MBNL1 nuclear foci in DM2 patient-derived fibroblasts; assay: Nuclear foci by RNA FISH and MBNL1 immunofluorescence; assay type: cell-based; design: dose or concentration left out as unconfirmed
Description: as §1
Evaluation of nuclear foci via RNA fluorescence in situ hybridization (FISH): RNA FISH was used to determine the small molecules' effects on the number of nuclear foci as previously described.^10 The number of foci were counted in 40 nuclei/replicate (120 total nuclei counted); n=3 replicates; 1 independent experiment.

[4] = target: base-paired RNA that does not contain internal loops; assay: Microscale thermophoresis (MST) affinity for base pair control RNA; assay type: binding
Description: as §3

[5] = tested on: CNBP mature mRNA in DM2 patient-derived fibroblasts; assay: CNBP mature mRNA levels via RT-qPCR in DM2 fibroblasts; assay type: cell-based
Description: as §1, §2

## Cc1ccc2nc(Nc3ccc4nc(C)sc4c3)nc(NCCCO)c2c1 [Compound 63, 3-((6-methyl-2-((2-methylbenzo[d]thiazol-6-yl)amino)quinazolin-4-yl)amino)propan-1-ol]
[1]
  effect on CNBP intron 1 levels: no effect
[2]
  effect on MAP4K4 exon 22a splicing: did not affect; also recorded: does not affect
r(CCUG)12
  Kd: 192 ± 20 nM
[3]; 63 vs untreated
  reduction of number of nuclear foci per cell: ~30%
[3]; untreated 7±1
  number of r(CCUG)exp-MBNL1 nuclear foci per cell: 5±0.5
[4]
  Kd: > 20000 nM
  binding to base-paired RNA that does not contain internal loops: no binding was observed
[5]
  levels of CNBP mature mRNA: did not affect
